The structures appear in SMILES notation. Like-named read-outs stand apart in the source and are kept apart here.

The source of these data is US7923465B2, “Cannabinoid receptor ligands, pharmaceutical compositions containing them, and process for their preparation” (priority 2005, dated 2011).

Data set [1] deals with T1, CB1 (Rattus norvegicus, UniProt P20272). Kind of data set: Rat CB1 receptor binding using brain membrane, [3H]SR141716A displacement (Protocol I). Further details: CB1 receptor present in a rat brain membrane preparation; from tissue; host or cells: rat brain membrane; inhibition: dose or concentration left out as unconfirmed. As to conditions: for inhibition: 1 h.
In data set [2] the target is T1, CB1. In words: GTPγS binding assay, CB1 functional assay in rat cerebellar membrane (Protocol VIII). As to conditions: for activation at 1 µM / Per Se % Stimulation: tested at 1 uM; for inhibition at 1 µM / % Inhibition of WIN-55212-2 induced stimulation: tested at 1 uM in presence of 1 μM WIN 55,212-2. The format is biochemical. On the set-up: 10 μg rat cerebellum membrane; from tissue; host or cells: rat cerebellum membrane, prepared in-house. As for the experimental part: VIII. Protocol for GTPγS Binding Assay (CB1 Functional Assay in Rat Cerebellar Membrane)
In this GTPγS binding assay, total, basal and nonspecific binding were determined. See Griffin G., Atkinson P. J., Showalter V. M., Martin B. R. and Abood M. E., “Evaluation of cannabinoid receptor agonists and antagonists using the Guanosine-5′-O-(3-(^35S)thio)-triphosphate binding assay in rat cerebellar membranes,” J Pharmacol Exp Ther 285: 553-560, 1998. Three wells for total binding, three wells for basal binding, and three wells for nonspecific binding at 0.2 nM concentration of radioligand were used. Basal binding was defined by 50 μM GDP (Guanosine diphosphate) and non-specific binding was defined by 10 μM unlabeled GTPγS. 10 μg rat cerebellum membrane, 50 μM of GDP, WIN-55212-2 or test compound (1 μM or 300 nM), 10 μM unlabeled GTPγs, and 0.2 nM of [^35S]GTPγS were added into a 96 well plate and the final volume of the reaction mixture was made with GTPγS buffer (50 mM Tris, 3 mM anhydrous MgCl2, 0.2 mM EGTA and 100 mM NaCl pH 7.4) to 200 μl. The plates were incubated at 30° C. for 1 hour. Then the reaction was stopped by filtration using a Whatman GF/B-96 microfilter plate. Three washings were given using Tris-HCl. The radioactivity bound to the brain membrane was retained on the filter disks to which scintillation fluid was added (Microscint PS). Then plates were read for radioactive counts using a Beta Liquid Scintillation Counter (Packard Instruments, Ill., USA).
The rat cerebellar brain membrane was prepared as follow: • 1. Sacrifice the rat and take out the whole brain and separate cerebellum as fast as possible and keep it on ice. • 2. Take the weight of the cerebellum and homogenize in 30 ml of homogenizing buffer (50 mM Tris-HCL containing 1 mM EDTA and 5% sucrose, pH 7.5) using homogenizer in cold condition. • 3. Centrifuge the homogenized cerebellum at 18000 rpm (38000 g) for 15 min at 4° C. • 4. Resuspend the pellet in 5 ml 50 mM Tris-HCL containing 1 mM EDTA and keep it on ice for 30 min. • 5. Pass the membrane through insulin syringe to ensure uniform suspension. • 6. Centrifuge the membrane at 18000 rpm at 4° C. for 20 min. • 7. Reconstitute the pellet in 3 ml of GTPγS buffer and estimate the protein by BCA assay and store the membrane in aliquots of 1000 μg of protein. CB1 Agonist and Antagonist Activity Screening Assay
The test compounds were screened at a final concentration of 1 μM or 300 nM in the absence and presence of 1 μM of WIN 55, 212-2 in the same manner as described in the GTPγS binding assay.
An agonist will stimulate the GTPγS binding over the basal.
An inverse agonist will decrease the basal GTPγS binding and/or produce more than 100% inhibition of the agonist (WIN-55212-2) induced stimulation.
The percent stimulation of GTPγS binding by each test compound at 1 μM or 300 nM concentration in the absence and presence of 1 μM WIN 55, 212-2 was calculated by comparing it with basal specific bound (Basal binding—Non Specific binding) values.
In general terms: Binding of GTPγS marks nucleotide exchange on a G protein.

In the next data set the target is hCB2 (Homo sapiens, UniProt P34972). Kind of data set: In vitro binding assay using hCB2-CHO membranes, [3H]-CP-55,940 displacement (Protocol IV). Further details: expressed in transfected cells; host or cells: CHO (hCB2-CHO, generated in-house). As to conditions: for inhibition at 0.3 µM: 1 h, read-out: % Displacement Protocol IV. An outline of the steps:
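Compounds were tested at a single 300 nM final concentration for displacing 0.75 nM [3H]-CP-55,940 from hCB2-CHO membranes (1 h, 30 °C, 50 mM Tris pH 7.4, 5 mM MgCl2, 1 mM EDTA, 0.1% BSA). Filter-bound radioactivity was counted, with 0.5 μM unlabelled CP-55,940 for nonspecific binding; results are % displacement.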

Setting [3] is: rat brain membrane, [3H]SR141716A displacement, read-out: % Displacement Protocol I.
Setting [4] is: 1 h, GTPγS binding over basal, rat cerebellar membrane, read-out: Per Se % Stimulation.
Where [5] appears, read: GTPγS binding, read-out: % Inhibition of WIN-55212-2 induced stimulation.
Setting [6] is: rat brain membrane, [3H]SR141716A displacement.
The mark [7] stands for this setting: GTPγS binding over basal, rat cerebellar membrane.
Where [8] appears, read: hCB2-CHO membranes, [3H]-CP-55,940 displacement.
The mark [9] stands for this setting: read-out: % Displacement Protocol I, rat brain membrane, [3H]SR141716A displacement.

T1 sequence (P20272 whole entry): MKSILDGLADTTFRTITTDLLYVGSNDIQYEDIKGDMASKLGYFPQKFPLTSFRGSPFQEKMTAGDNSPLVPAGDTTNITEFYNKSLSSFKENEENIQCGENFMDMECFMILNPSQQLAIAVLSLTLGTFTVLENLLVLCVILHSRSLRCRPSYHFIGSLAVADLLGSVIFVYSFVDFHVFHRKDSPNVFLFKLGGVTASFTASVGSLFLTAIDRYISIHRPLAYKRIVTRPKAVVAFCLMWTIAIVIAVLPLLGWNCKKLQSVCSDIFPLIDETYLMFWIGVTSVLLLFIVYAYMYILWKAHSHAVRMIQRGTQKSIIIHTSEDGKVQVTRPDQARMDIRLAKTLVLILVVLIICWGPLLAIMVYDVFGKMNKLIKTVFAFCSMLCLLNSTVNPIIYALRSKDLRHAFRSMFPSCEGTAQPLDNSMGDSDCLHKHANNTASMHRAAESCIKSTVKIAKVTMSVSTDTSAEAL
Sequence of hCB2 (P34972 whole entry): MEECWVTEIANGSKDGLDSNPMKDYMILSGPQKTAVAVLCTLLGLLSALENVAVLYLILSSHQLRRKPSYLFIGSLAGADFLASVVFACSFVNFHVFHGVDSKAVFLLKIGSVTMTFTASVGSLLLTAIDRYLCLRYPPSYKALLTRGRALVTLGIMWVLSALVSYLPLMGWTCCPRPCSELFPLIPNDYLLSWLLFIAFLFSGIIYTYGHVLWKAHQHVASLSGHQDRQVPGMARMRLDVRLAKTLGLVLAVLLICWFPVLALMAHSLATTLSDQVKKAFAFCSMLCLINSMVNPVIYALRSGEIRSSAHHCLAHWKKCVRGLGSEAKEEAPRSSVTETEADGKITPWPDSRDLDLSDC

On to `O=C(NC1CCCCC1)c1nn(-c2ccc(Cl)cc2Cl)c2c1C1CCC2C1` (centres unmarked) [Example 237, N(3)-Cyclohexyl-1-(2,4-dichlorophenyl)-4,5,6,7-tetrahydro-1H-4,7-methano-indazole-3-carboxamide], for which, at CB1 [1] (setting [3]), the inhibition was determined as 65.6%. The activation at 1 µM on CB1 [2] (setting [4]) was 7.1%. In addition, on CB1 [2] (setting [5]), the inhibition at 1 µM was 74.7%.

`O=C(NCc1ccccc1)c1nn(-c2ccc(Cl)cc2Cl)c2c1C1CCC2C1` (centres unmarked) [Example 269, N(5)-benzyl-3-(2′,4′-dichlorophenyl)-3,4-diazatricyclo[5.2.1.0^2,6]deca-2(6),4-diene-5-carboxamide]: on CB1 [1] (setting [3]), the inhibition is 47.7%. For the same compound, the activation at 1 µM at CB1 [2] (setting [4]) worked out at 6%. Besides, the inhibition at 1 µM on CB1 [2] (setting [5]) was determined as 91.4%.

With `O=C(NCc1ccccc1)c1nn(-c2ccc(Cl)cc2)c2c1C1CC3CC(C1)CC2C3` [Example 139, N(7)-Benzyl-5-(4′-chlorophenyl)-5,6-diazatetracyclo[7.3.1.1^3,11.0^4,8]tetradeca-4(8)-6-diene-7-carboxamide], on CB1 [1] (setting [6]), the “% Displacement Protocol I” value is on record as 62.4%. The “Per Se % Stimulation” value on CB1 [2] (setting [7]) is reported as −8.5%. In addition, the “% Inhibition of WIN-55212-2 induced stimulation” value (from here on “% Inhibition”) at CB1 [2] (GTPγS binding) is reported as 109.1%.

`O=C(NNc1ccc(Cl)cc1Cl)c1n[nH]c2c1C1(c3ccc(Cl)cc3)CCC2C1` (centres unmarked) [Example 230, N(3)-[(2,4-Dichlorophenyl)amino]-4-(4-chlorophenyl)-4,5,6,7-tetrahydro-1H-4,7-methano-indazole-3-carboxamide]: on CB1 [1] (setting [3]), the inhibition was 87.2%. Besides, at CB1 [2] (setting [4]), the activation at 1 µM was 42.4%. For the same compound, the inhibition at 1 µM at CB1 [2] (setting [5]) came to 99.4%.

Turning to `O=C(NN1CCCCC1)c1nn(-c2ccc(Cl)cc2Cl)c2c1C1CC3CC(C1)CC2C3` [Example 180, N(7)-piperidino-5-(2′,4′-dichlorophenyl)-5,6-diazatetracyclo[7.3.1.1^3,11.0^4,8]tetradeca-4(8),6-diene-7-carboxamide], the inhibition at CB1 [1] (setting [3]) was found to be 40.6%. In addition, at hCB2 (setting [8]), the inhibition at 0.3 µM stood at 13.2%. The activation at 1 µM on CB1 [2] (setting [4]) was determined as 10%. At CB1 [2] (setting [5]), the inhibition at 1 µM was found to be 87.9%.

The melting point is the temperature of the solid-liquid transition. Compound `O=C(NC12CC3CC(CC(C3)C1)C2)c1nn(-c2ccc(Cl)cc2Cl)c2c1C1CCC2C1` (centres unmarked) [Example 242, N(3)-(Adamantan-1yl)-1-(2,4-dichlorophenyl)-4,5,6,7-tetrahydro-1H-4,7-methano-indazole-3-carboxamide] displayed a melting point of 201 to 204 °C. Besides, the activation at 0.3 µM on CB1 [2] (1 h, GTPγS binding over basal, rat cerebellar membrane, tested at 300 nM, read-out: Per Se % Stimulation) worked out at 33.4%. Further, the inhibition at 0.3 µM at CB1 [2] (GTPγS binding, tested at 300 nM in presence of 1 μM WIN 55,212-2, read-out: % Inhibition of WIN-55212-2 induced stimulation) worked out at 22.9%.

As to `Cl.O=C(NN1CCCCC1)c1nn(-c2ccc(Cl)cc2Cl)c2c1C1CCC2c2ccccc21` (centres unmarked) [Example 503, N(12)-Piperidino-10-(2,4-dichlorophenyl)-10,11-diazatetracyclo[6.5.2.0^2,7.0^9,13]pentadeca-2,4,6,9(13),11-pentaene-12-carboxamide hydrochloride], the inhibition on CB1 [1] (setting [9]) is 81.2%. Moreover, the “Per Se % Stimulation” value at CB1 [2] (setting [7]) is on record as 1.5%. Besides, at CB1 [2] (GTPγS binding), the “% Inhibition” value is recorded as 92.0%.

Turning to `CN(NC(=O)c1nn(-c2ccc(Cl)cc2)c2c1C1CC3CC(C1)CC2C3)c1ccc(Cl)cc1Cl` [Example 127], on CB1 [1] (setting [6]), the “% Displacement Protocol I” value is 85.3%. Also, the “Per Se % Stimulation” value at CB1 [2] (setting [7]) was determined as 18.0%. Also, the “% Inhibition” value on CB1 [2] (GTPγS binding) came out at 100.2%.

In turn, `O=C(NCc1ccccc1)c1nn(-c2ccccc2Br)c2c1C1CC3CC(C1)CC2C3` [Example 102, N(7)-Benzyl-5-(2-bromophenyl)-5,6-diazatetracyclo[7.3.1.1^3,11.0^4,8]tetradeca-4(8),6-diene-7-carboxamide] gave a melting point of 20 °C. Also, the inhibition at CB1 [1] (setting [3]) is 27.3%. The inhibition at 0.3 µM at hCB2 (setting [8]) came out at 0.74%.

With `O=C(NNc1ccc(Cl)cc1Cl)c1nn(-c2ccc(Cl)cc2)c2c1C1CC3CC(C1)CC2C3` [Example 126, N(7)-(2,4-Dichlorophenylamino)-5-(4-chlorophenyl)-5,6-diazatetracyclo[7.3.1.1^3,11.0^4,8]tetradeca-4(8),6-diene-7-carboxamide], the inhibition on CB1 [1] (setting [3]) amounted to 118%. Besides, the activation at 1 µM at CB1 [2] (setting [4]) is -7.9%. In addition, the inhibition at 1 µM at CB1 [2] (setting [5]) stood at 104%.

On to `O=C(NN1CCCCC1)c1nn(-c2ccccc2Cl)c2c1C1CCC2C1` (centres unmarked) [Example 205, N(3)-Piperidino-1-(2-chlorophenyl)-4,5,6,7-tetrahydro-1H-4,7-methano-indazole-3-carboxamide], for which the melting point came to 232 °C. In addition, the inhibition on CB1 [1] (setting [3]) is -12.7%. For the same compound, the inhibition at 0.3 µM at hCB2 (setting [8]) stood at 15.9%.

Compound `O=C(NCC1CCCCC1)c1nn(-c2ccc(Cl)cc2)c2c1C1CC3CC(C1)CC2C3` [Example 108, N(7)-Cyclohexylmethyl-5-(4-chlorophenyl)-5,6-diazatetracyclo[7.3.1.1^3,11.0^4,8]tetradeca-4(8),6-diene-7-carboxamide] had a melting point of 117 °C. Also, the inhibition on CB1 [1] (setting [3]) is 82.5%. Moreover, on hCB2 (setting [8]), the inhibition at 0.3 µM was 37.1%.

`O=C(NNc1ccccc1F)c1nn(-c2ccc(Cl)cc2Cl)c2c1C1CCC2C1` (centres unmarked) [Example 264, N(3)-[(2-Fluorophenyl)amino]-1-(2,4-dichlorophenyl)-4,5,6,7-tetrahydro-1H-4,7-methano-indazole-3-carboxamide]: the inhibition at CB1 [1] (setting [3]) turned out to be 85.6%. In addition, the activation at 1 µM at CB1 [2] (setting [4]) was -0.1%. For the same compound, the inhibition at 1 µM at CB1 [2] (setting [5]) worked out at 94.5%.

Turning to `O=C(NNc1ccccc1Br)c1nn(-c2ccc(Cl)cc2Cl)c2c1C1CC3CC(C1)CC2C3` [Example 176, N(7)-(2-Bromophenylamino)-5-(2,4-dichlorophenyl)-5,6-diazatetracyclo[7.3.1.1^3,11.0^4,8]tetradeca-4(8),6-diene-7-carboxamide], the melting point was 196 to 199 °C. For the same compound, the inhibition at CB1 [1] (setting [3]) turned out to be 65.6%. For the same compound, on hCB2 (setting [8]), the inhibition at 0.3 µM is 30.5%.

With `O=C(NN(c1ccccc1)c1ccccc1)c1nn(-c2ccc(Cl)cc2Cl)c2c1C1CC3CC(C1)CC2C3` [Example 177, N(7)-(N′,N′-Diphenylimino)-5-(2,4-dichlorophenyl)-5,6-diazatetracyclo[7.3.1.1^3,11.0^4,8]tetradeca-4(8),6-diene-7-carboxamide], at CB1 [1] (setting [6]), the “% Displacement Protocol I” value is 75.6%. Further, the “% Displacement Protocol IV” value on hCB2 (setting [8]) turned out to be 15.26%. At CB1 [2] (setting [7]), the “Per Se % Stimulation” value came out at 9.7%. Moreover, on CB1 [2] (GTPγS binding), the “% Inhibition” value is recorded as 109.1%.

`O=C(NC1CCCCC1)c1nn(-c2ccccc2Br)c2c1C1CCC2C1` (centres unmarked) [Example 271, N(3)-Cyclohexyl-1-(2-bromophenyl)-4,5,6,7-tetrahydro-1H-4,7-methano-indazole-3-carboxamide]: the melting point was determined as 178 °C. For the same compound, at CB1 [1] (setting [9]), the inhibition turned out to be 11.7%. Moreover, on hCB2, the inhibition at 0.3 µM is 46%.
